Laboratory results published in patent publication US20240099989A1, “AGENT FOR PREVENTING OR IMPROVING PERIPHERAL NEUROPATHY” (KINKI UNIVERSITY, priority 2021, published 2024).

Tested on: Diabetic Peripheral Neuropathy in a Mouse Induced by Streptozotocin
Assay: Cold plate test (4° C.), diabetic peripheral neuropathy induced by streptozotocin
Assay type: in vivo, C57BL/6J mice
Settings: time course
Procedure: Six to seven-week-old male C57BL/6J mice were used for the tests as with Example 7. All the mice were acclimated for seven days after arrival. Then, the mice were grouped into the following four groups: a control group, a group receiving streptozotocin, a group receiving 1 mg/kg xylitol, and a group receiving streptozotocin+1 mg/kg xylitol. Each group consisted of nine mice.
The mice in the group receiving 1 mg/kg xylitol were orally administered with xylitol at a dose of 1 mg/kg daily from Day 0. The mice in the group receiving streptozotocin+1 mg/kg xylitol were orally administered with xylitol at a dose of 1 mg/kg daily from Day 21 of administration.
A cold plate test was performed to examine the effect due to xylitol on paresthesia that is caused by a low temperature stimulus. The mice in the four groups described in (1) of the present example (Example 8) were placed on a cold plate set at 4° C., and withdrawal response time (latent time) was measured. It is presumed that a shorter withdrawal response time (latent time) reflects a greater degree of shunning the low temperature stimulus by the cold plate. […]
On Day 8 of acclimation, the mice in the group receiving streptozotocin and the group receiving streptozotocin+5 mg/kg D-threitol were administered with streptozotocin at a dose of 200 mg/kg. A massive dose of streptozotocin destroys pancreatic cells in the mice. As a result, insulin is no longer secreted, and thus, diabetes can be developed in the mice. This day was designated as the first day of the administration (Day 0). Note that streptozotocin was administered only on the first day of administration.
The mice in the group receiving 5 mg/kg D-threitol and the group receiving streptozotocin+5 mg/kg D-threitol were orally administered with D-threitol at a dose of 5 mg/kg daily from Day 0. […]
The mice in the group receiving 5 mg/kg D-threitol were orally administered with D-threitol at a dose of 5 mg/kg daily from Day 0. The mice in the group receiving streptozotocin+5 mg/kg D-threitol were orally administered with D-threitol at a dose of 5 mg/kg daily from Day 21 of administration.
(§1) A cold plate test was performed to examine the effect of D-threitol on paresthesia that is caused by a low temperature stimulus. The mice in the four groups described in (1) of the present example (Example 10) were placed on a cold plate set at 4° C., and withdrawal response time (latent time) was measured. […]
as §1, with “L-talitol” for “D-threitol”, “11)” for “10)”

[1] = streptozotocin 200 mg/kg + 5 mg/kg orally daily from Day 21 (therapy)

In the case of `OC[C@H](O)[C@H](O)[C@H](O)[C@@H](O)CO` [L-talitol], the “withdrawal response time (latent time)” value [1] is reported as “extended from Day 21 onwards”.
With `OC[C@@H](O)[C@H](O)CO` [D-threitol] the “withdrawal response time (latent time)” value [1] was “extended from Day 21 onwards”.
With `OC[C@@H](O)[C@H](O)[C@@H](O)CO` [xylitol] the “withdrawal response time (latent time)” value (streptozotocin 200 mg/kg + 1 mg/kg orally daily from Day 21 (therapy)) was “extended from Day 21 onwards”.
